US11230543B2, “Biaryl monobactam compounds and methods of use thereof for the treatment of bacterial infections” (priority 2015, dated 2022)
Structures can show the parent of a compound that is named as a salt.

Key:
[1] = system: Pseudomonas aeruginosa expressing AmpC (CL5701); assay: Antibiotic activity: growth inhibitory concentration (OD600), Pseudomonas aeruginosa CL5701; assay type: cell-based; details: lowest concentration inhibiting 95% of bacterial growth; in the presence of β lactamase inhibitor Relebactam 4 μg/mL; 35±2° C. for 22 hours; tested range 100 μM to 0.098 μM
Method: (§1) Antibiotic Activity: Determination of Growth Inhibitory Concentration
(§2) The concentrations of compounds required to inhibit the growth of various strains of bacteria were determined in an assay that assessed bacterial growth by measuring optical density at 600 nm (OD600). The bacterial strains tested included the clinical strains Escherichia coli expressing NDM-1 (CLB30016), Klebsiella pneumoniae expressing KPC-1 (CL6569), Acinetobacter baumannii expressing TEM-1, AmpC, and Oxa-24/40 (CL6188) and Pseudomonas aeruginosa expressing AmpC (CL5701). All compounds were tested in the presence of a β lactamase inhibitor (BLi, Relebactam) in 384-well microplates. The clinical strains were stored as frozen single use stocks, thawed and diluted into 1.1× cation-adjusted Mueller-Hinton II broth to achieve approximately 2×10^5 CFU/mL. Test compounds were dissolved in DMSO and diluted 1:50 in the assay, resulting in a final concentration range of 100 μM to 0.098 μM. On the day of the assay, 1 μL of test compound was added to the plate followed by 4 μL of 50 μg/mL BLi in MOPS buffer and 45 μL of diluted bacteria. Plates were centrifuged at 1000 rpm for 30 seconds, shaken at approximately 800 rpm for 1 minute, and incubated at 35±2° C. for 22 hours. The concentration of BLi used in the assay was 4 μg/mL. At the end of the incubation, absorbance at 600 nm was determined using a spectrophotometer. Inhibition was quantitated by identifying the lowest concentration of test compound that was required to inhibit 95% of the growth of the bacteria. The results for Examples 1-126 are reported in Table I, expressed as the concentration of compound that inhibited 95% of bacterial growth (Minimum Inhibitory Threshold Concentration; MITC95).

[2] = system: Klebsiella pneumoniae expressing KPC-1 (CL6569); assay: Antibiotic activity: growth inhibitory concentration (OD600), Klebsiella pneumoniae CL6569; assay type: cell-based; details: lowest concentration inhibiting 95% of bacterial growth; in the presence of β lactamase inhibitor Relebactam 4 μg/mL; 35±2° C. for 22 hours; tested range 100 μM to 0.098 μM
Method: as §1, §2

Row | SMILES | PA_CL5701 MITC95 [1] | KP_CL6569 MITC95 [2]
1 | C[n+]1cc(-c2ccc(OC[C@H](O/N=C(\C(=O)N[C@@H]3C(=O)N(OS(=O)(=O)O)C3(C)C)c3csc(N)n3)C(=O)O)cc2)cn1CC(O)CN (stereo partly drawn) [Example 42, (3S)-3-((Z)-2-(((1S)-2-(4-(1-(3-amino-2-hydroxypropyl)-2-methyl-1H-pyrazol-2-ium-4-yl)phenoxy)-1-carboxyethoxy)imino)-2-(2-aminothiazol-4-yl)acetamido)-2,2-dimethyl-4-oxoazetidin-1-yl sulfate] | 3.125 µM | 0.3906 µM
2 | C[n+]1cc(-c2ccc(OC[C@H](O/N=C(\C(=O)N[C@@H]3C(=O)N(OS(=O)(=O)[O-])C3(C)C)c3csc(N)n3)C(=O)O)cc2)ccc1CNC(CN)CN [Example 79, (S)-3-((Z)-2-(2-aminothiazol-4-yl)-2-(((S)-1-carboxy-2-(4-(6-(((1,3-diaminopropan-2-yl)amino)methyl)-1-methylpyridin-1-ium-3-yl)phenoxy)ethoxy)imino)acetamido)-2,2-dimethyl-4-oxoazetidin-1-yl sulfate] | 6.25 µM | 0.3906 µM
3 | Cn1c(-c2ccc(OC[C@H](O/N=C(\C(=O)N[C@@H]3C(=O)N(OS(=O)(=O)O)C3(C)C)c3csc(N)n3)C(=O)O)cc2)cn(CCCN)c1=NCCN (stereo in doubt) [Example 57, (S)-3-(4-((Z)-2-((2-aminoethyl)imino)-1-(3-aminopropyl)-3-methyl-2,3-dihydro-1H-imidazol-4-yl)phenoxy)-2-((((Z)-1-(2-aminothiazol-4-yl)-2-(((S)-2,2-dimethyl-4-oxo-1-(sulfooxy)azetidin-3-yl)amino)-2-oxoethylidene)amino)oxy)propanoic acid] | 3.125 µM | 0.1953 µM
4 | C[n+]1cc(-c2ccc(OC[C@H](O/N=C(\C(=O)N[C@@H]3C(=O)N(OS(=O)(=O)[O-])C3(C)C)c3csc(N)n3)C(=O)O)cc2F)cn1C[C@@H](O)CN.O=CO (single isomer, unassigned) [Example 43] | 3.125 µM | 0.1953 µM
5 | CC1(C)[C@H](NC(=O)/C(=N\O[C@@H](COc2ccc(-c3cnn(CCCN)c3)nc2)C(=O)O)c2csc(N)n2)C(=O)N1OS(=O)(=O)O.O=C(O)C(F)(F)F [Example 13, 3-(4-(5-((S)-2-((((Z)-1-(2-aminothiazol-4-yl)-2-(((S)-2,2-dimethyl-4-oxo-1-(sulfooxy)azetidin-3-yl)amino)-2-oxo-ethylidene)amino)oxy)-2-carboxyethoxy)pyridin-2-yl)-1H-pyrazol-1-yl)propan-1-aminium 2,2,2-trifluoroacetate] | 12.5 µM | 0.7813 µM
6 | CC1(C)[C@H](NC(=O)/C(=N\O[C@@H](COc2ccc(C3CN=C(NCCN)NC3)cc2)C(=O)O)c2csc(N)n2)C(=O)N1OS(=O)(=O)O (stereo partly drawn) [Example 94, (2S)-3-(4-(2-((2-aminoethyl)amino)-1,4,5,6-tetrahydropyrimidin-5-yl)phenoxy)-2-((((Z)-1-(2-aminothiazol-4-yl)-2-(((S)-2,2-dimethyl-4-oxo-1-(sulfooxy)azetidin-3-yl)amino)-2-oxoethylidene)amino)oxy)propanoic acid] | 3.125 µM | 0.1953 µM
7 | C[n+]1cc(-c2ccc(OC[C@H](O/N=C(\C(=O)N[C@@H]3C(=O)N(OS(=O)(=O)O)C3(C)C)c3csc(N)n3)C(=O)O)cc2)cn1CCCNCC1CNC1 [Example 103, (S)-3-((E)-2-(2-aminothiazol-4-yl)-2-(((S)-2-(4-(1-(3-((azetidin-3-ylmethyl)amino)-propyl)-2-methyl-1H-pyrazol-2-ium-4-yl)phenoxy)-1-carboxyethoxy)imino)acetamido)-2,2-dimethyl-4-oxoazetidin-1-yl sulfate, 3TFA] | 3.125 µM | 0.09766 µM
8 | CC1(C)[C@H](NC(=O)/C(=N\OCCOc2ccc(-n3cc[n+](CCCN)c3)nc2)c2csc(N)n2)C(=O)N1OS(=O)(=O)[O-] [Example 35, (S,Z)-3-(2-((2-((6-(3-(3-aminopropyl)-1H-imidazol-3-ium-1-yl)pyridin-3-yl)oxy)ethoxy)imino)-2-(2-aminothiazol-4-yl)acetamido)-2,2-dimethyl-4-oxoazetidin-1-yl sulfate 2,2,2-trifluoroacetate] | 50 µM | 1.281 µM
9 | CC1(C)[C@H](NC(=O)/C(=N\O[C@@H](COc2ccc(-n3cc[n+](CC4CNC4)c3)nc2)C(=O)O)c2csc(N)n2)C(=O)N1OS(=O)(=O)[O-] [Example 109, (S)-3-((Z)-2-(2-aminothiazol-4-yl)-2-(((S)-2-((6-(3-(azetidin-3-ylmethyl)-1H-imidazol-3-ium-1-yl)pyridin-3-yl)oxy)-1-carboxyethoxy)imino)acetamido)-2,2-dimethyl-4-oxoazetidin-1-yl sulfate] | 12.5 µM | 0.7813 µM
10 | CC1(C)[C@H](NC(=O)/C(=N\O[C@@H](COc2ccc(-c3cc(CNCCN)n(CCCN)n3)cc2)C(=O)O)c2csc(N)n2)C(=O)N1OS(=O)(=O)O [Example 125, (S)-3-(4-(5-(((2-Aminoethyl)amino)methyl)-1-(3-aminopropyl)-1H-pyrazol-3-yl)phenoxy)-2-((((Z)-1-(2-aminothiazol-4-yl)-2-(((S)-2,2-dimethyl-4-oxo-1-(sulfooxy)azetidin-3-yl)amino)-2-oxoethylidene)amino)oxy)propanoic acid] | 3.125 µM | 0.39 µM
11 | CC1(C)[C@H](NC(=O)/C(=N\O[C@@H](COc2ccc(-n3cc[n+](CCC[N+](C)(C)C)c3)nc2)C(=O)O)c2csc(N)n2)C(=O)N1OS(=O)(=O)O [Example 110, (S)-3-((Z)-2-(2-aminothiazol-4-yl)-2-(((S)-1-carboxy-2-((6-(3-(3-(trimethylammonio)propyl)-1H-imidazol-3-ium-1-yl)pyridin-3-yl)oxy)ethoxy)imino)acetamido)-2,2-dimethyl-4-oxoazetidin-1-yl sulfate] | 50 µM | 1.563 µM
12 | CC1(C)[C@H](NC(=O)/C(=N\O[C@@H](COc2ccc(-c3cnn(CC[N+]4(C)CCOCC4)c3)cc2)C(=O)O)c2csc(N)n2)C(=O)N1OS(=O)(=O)O.O=C([O-])C(F)(F)F [Example 14, 4-(2-(4-(4-((S)-2-((((Z)-1-(2-aminothiazol-4-yl)-2-(((S)-2,2-dimethyl-4-oxo-1-(sulfooxy)azetidin-3-yl)amino)-2-oxoethylidene)amino)oxy)-2-carboxyethoxy)phenyl)-1H-pyrazol-1-yl)ethyl)-4-methylmorpholin-4-ium 2,2,2-trifluoroacetate] | 12.5 µM | 0.7813 µM
13 | Cn1c(-c2ccc(OC[C@H](O/N=C(\C(=O)N[C@@H]3C(=O)N(OS(=O)(=O)O)C3(C)C)c3csc(N)n3)C(=O)O)cc2)cn(CC(CN)CN)c1=N [Example 55, (S)-3-(4-(1-(3-amino-2-(aminomethyl)propyl)-2-imino-3-methyl-2,3-dihydro-1H-imidazol-4-yl)phenoxy)-2-((((Z)-1-(2-aminothiazol-4-yl)-2-(((S)-2,2-dimethyl-4-oxo-1-(sulfooxy)azetidin-3-yl)amino)-2-oxoethylidene)amino)oxy)propanoic acid] | 1.563 µM | 0.1953 µM
14 | C[n+]1cc(-c2ccc(OC[C@H](O/N=C(\C(=O)N[C@@H]3C(=O)N(OS(=O)(=O)[O-])C3(C)C)c3nsc(N)n3)C(=O)O)cc2)cn1CCCN [Example 12, (S)-3-((Z)-2-(5-Amino-1,2,4-thiadiazol-3-yl)-2-(((S)-2-(4-(1-(3-aminopropyl)-2-methyl-1H-pyrazol-2-ium-4-yl)phenoxy)-1-carboxyethoxy)imino)acetamido)-2,2-dimethyl-4-oxoazetidin-1-yl sulfate] | 3.125 µM | 0.3906 µM
15 | C[n+]1nc(NCCCN)ccc1-c1ccc(OC[C@H](O/N=C(\C(=O)N[C@@H]2C(=O)N(OS(=O)(=O)[O-])C2(C)C)c2csc(N)n2)C(=O)O)cc1 [Example 122, (S)-3-((Z)-2-(((S)-2-(4-(3-((3-aminopropyl)amino)-1-methylpyridazin-1-ium-6-yl)phenoxy)-1-carboxyethoxy)imino)-2-(2-aminothiazol-4-yl)acetamido)-2,2-dimethyl-4-oxoazetidin-1-yl sulfate] | 3.125 µM | 0.1953 µM
16 | C[n+]1c(N)c(-c2ccc(OC[C@H](O/N=C(\C(=O)N[C@@H]3C(=O)N(OS(=O)(=O)[O-])C3(C)C)c3csc(N)n3)C(=O)O)cc2)cn1CCCN [Example 28, (S)-3-((Z)-2-(((S)-2-(4-(3-Amino-1-(3-aminopropyl)-2-methyl-1H-pyrazol-2-ium-4-yl)phenoxy)-1-carboxyethoxy)imino)-2-(2-aminothiazol-4-yl)acetamido)-2,2-dimethyl-4-oxoazetidin-1-yl sulfate] | 3.13 µM | 0.2 µM
